Literature values as cited in patent US5859021A, “Antiviral combinations” (priority 1991, dated 1999).

Experiments:
[1] = versus (+) enantiomer
[2] = tested on: patients with AIDS; details: for toxicity in patients: AIDS patients, AZT: long-term therapy
[3] = tested on: HIV
[4] = tested on: normal human bone marrow progenitor cells; details: combination with high-dose AZT, antiviral activity not affected

Nc1ccn([C@@H]2CS[C@H](CO)O2)c(=O)n1 [3TC]
cytotoxicity compared with the (+) enantiomer [1]: considerably lower cytotoxicity than the (+) enantiomer

Cc1cn([C@H]2C[C@H](N=[N+]=[N-])[C@@H](CO)O2)c(=O)[nH]c1=O [AZT, 3'-azido-3'-deoxythymidine]
toxicity in patients [2]: bone-marrow toxicity | appearance of resistant HIV-1 variants ([2]; long-term AZT therapy): appearance of AZT-resistant variants of HIV-1 | morbidity and mortality ([2]; patients with AIDS): reduces morbidity and mortality | inhibition of HIV replication in vitro ([3]; in vitro): inhibit HIV replication in vitro | antiviral activity in combination ([3]; in vitro, with recombinant soluble CD4, castanospermine and recombinant interferon alpha): synergistic antiviral activity

OC[C@@H]1CC[C@H](n2cnc3c(O)ncnc32)O1 [ddI, 2',3'-dideoxyinosine]
toxicity in patients [2]: pancreatitis and peripheral neuropathy | inhibition of HIV replication in vitro ([3]; in vitro): inhibit HIV replication in vitro

Nc1ccn([C@H]2CC[C@@H](CO)O2)c(=O)n1 [ddC, 2',3'-dideoxycytidine]
toxicity in patients [2]: peripheral neurophathy | effect on bone marrow cytotoxicity of high-dose AZT [4]: eliminates the bone marrow cytotoxicity of high-dose AZT | antiviral activity of AZT in combination with ddC [3]: without affecting its antiviral activity | inhibition of HIV replication in vitro ([3]; in vitro): inhibit HIV replication in vitro

Nc1ccn([C@@H]2CS[C@H](CO)O2)c(=O)n1 (racemic) [compound of formula (I), (±)-(cis)-4-Amino-1-(2-hydroxymethyl-1,3-oxathiolan-5-yl)-(1H)-pyrimidin-2-one]
antiviral activity against HIV [3]: having antiviral activity
